In patent US7867976B2, “Nogo epitopic fragments for modulating immune response” (The Board of Trustees of the Leland Stanford Junior …, priority 2003, dated 2011):

Legend:
Normal Mouse Serum = test: myelin antigen microarray; positive-control feature 'Anti-mouse IgG/M' capturing immunoglobulin of the serum in column 'a. Normal'
[1] = test system: myelin antigens (2304-feature spotted peptide array, 293 distinct antigens); test: antibody (B cell) response of sera from immunized animals on spotted peptide array; assay type: in vivo, mice; settings: for epitope spreading of the B cell response to other myelin antigens: sera on proteome array, statistical and cluster analysis
Excerpt: Nogo-66 peptide immunization induces a B cell response with epitope spreading to other myelin antigens. To follow the induction of a specific antibody response to the immunizing Nogo peptides, and the possible spread to other myelin antigens, we used an 2304-feature spotted peptide array developed in our laboratory that contains 293 distinct antigens including proteins and sets of overlapping peptides representing all major EAE-relevant targets and several Nogo-66 overlapping peptides together with p472 (Robinson, 2001). Sera from several immunized animals was obtained at different time points after EAE induction with all three Nogo peptides, and hybridized to the proteome array according to our protocol.
This was particularly relevant after immunization with pNogo45-66 in both strains, and with pNogo23-44 for C57BU6 mice. Spreading of the B cell response evidenced a specific pattern for each immunizing antigen within each strain, with very little overlap between them.
Immunization. For Nogo immunizations, SJL/J and C57BU6 female mice were injected subcutaneously with Nogo-peptide emulsions (concentrations ranging from 100 μg to 500 μg per injection) in CFA, consisting of IFA (Difco) and 1 mg/ml heat-inactivated Mycobacterium tuberculosis (strain H37RA; Difco laboratories, Detroit Mich.). Animals received two subcutaneous injections a week apart in different sites (flank and groin); at the time of the second immunization and 48 hours later, mice were injected intravenously with Bordetella pertussis toxin (List Laboratories) in PBS, 500 ng/animal; For Nogo-A/B/C knockouts, animals were immunized subcutaneously with 100 μg of MOG35-55 peptide emulsion in CFA and received two intravenous injections of 300 ng of Bordetella pertussis toxin, at the time of immunization and 48 hours later. […] Animals were clinically scored daily according to the following scale: 0-normal; 1-tail paralysis; 2-hind limb paraparesis; 3-complete hind limb paralysis; 4-forelimb paresis or paralysis; 5-death.

whole lymph node cells = test: whole lymph node cell proliferation assay against Nogo and irrelevant peptides after Nogo-66 peptide immunization; assay type: cell-based, mice; settings: draining lymph nodes at end of experiments
Excerpt: Induction of EAE and T cell responses with Nogo-66 peptides in susceptible mouse strains. To ascertain the potential for Nogo-A to act as a target autoantigen for autoimmune demyelination, we chose to focus on the exposed extracellular 66-amino acid loop, Nogo-66, since this should be the region most prone to interaction with immune cells. EAE susceptible SJL/J and C57BU6 female mice of the appropriate age were subcutaneously immunized with Nogo-66 derived peptides in CFA, in various concentration ranging from 200 μg to 1000 μg, together with intravenous administration of Pertussis toxin.
Three different arbitrarily selected peptides were synthesized to encompass the whole sequence (peptides 1-22, 23-44 and 45-66). […] To evaluate the generation of a T cell proliferative response against the immunizing antigen, we collected draining lymph nodes at the end of the experiments and setup whole lymph node cell proliferation assays against our panel of Nogo and irrelevant peptides. […] Therefore, T cell epitopes appear to be slightly different between these two strains.
Immunization. For Nogo immunizations, SJL/J and C57BU6 female mice were injected subcutaneously with Nogo-peptide emulsions (concentrations ranging from 100 μg to 500 μg per injection) in CFA, consisting of IFA (Difco) and 1 mg/ml heat-inactivated Mycobacterium tuberculosis (strain H37RA; Difco laboratories, Detroit Mich.). Animals received two subcutaneous injections a week apart in different sites (flank and groin); at the time of the second immunization and 48 hours later, mice were injected intravenously with Bordetella pertussis toxin (List Laboratories) in PBS, 500 ng/animal; For Nogo-A/B/C knockouts, animals were immunized subcutaneously with 100 μg of MOG35-55 peptide emulsion in CFA and received two intravenous injections of 300 ng of Bordetella pertussis toxin, at the time of immunization and 48 hours later. Chronic EAE was induced in SJL/J mice by subcutaneous injection of […] of PLP139-151 peptide emulsion in CFA. Animals were clinically scored daily according to the following scale: 0-normal; 1-tail paralysis; 2-hind limb paraparesis; 3-complete hind limb paralysis; 4-forelimb paresis or paralysis; 5-death.
Proliferation assays. Whole lymph node cells were cultured in 96-well microtiter plates at 0.5×10^6 cells/well. Culture medium consisted of RPMI 1640 supplemented with L-glutamine (2 mM), sodium pyruvate (1 mM), non-essential amino acids (0.1 mM), penicillin (100 U/ml), streptomycin (0.1 mg/ml), 2-ME (5×10^−5 M) and 10% fetal bovine serum. Wells were pulsed with 1 μCi [^3H]TdR for the final 16 hours of culture, and incorporated radioactivity was measured using a betaplate scintillation counter.

[2] = test system: whole lymph node cells (T cells, dendritic cells); test: FACScan analysis of activation markers and co-stimulatory molecules after immunization; assay type: cell-based, mice; settings: female SJL/J, 10 days post-immunization; compared with PLP139-151
Excerpt: We purified whole lymph node cells from female SJL/J animals 10 days post-immunization with PLP139-151, pNogo1-22 and pNogo45-66 and looked at the expression of several activation markers and co-stimulatory molecules by fluorescence activated cell scan (FACScan) analysis. […] Nogo-peptides are capable of normal presentation by APC and immunization leads to normal activation of T cells.

EAE in SJL/J mice = test: adoptive transfer of Nogo-reactive T cells into SJL/J mice with PLP139-151 induced EAE; assay type: in vivo; settings: cells of EAE animals that received TCL; compared with PLP139-151
Experimental: We induced EAE in SJL/J mice by immunization with 100 μg of PLP139-151 peptide in CFA and followed these animals for disease course. At the peak of second relapse (day 31), animals were randomized into three groups and received either weekly PBS, anti-pNogo1-22 or anti-pNogo45-66 reactive T cells in PBS (average of 15 million cells), by intravenous administration for three weeks. […] For these animals, this improvement was maintained throughout the next 45 days of the experiment, up to 30 days after the last TCL administration.
Immunization. For Nogo immunizations, SJL/J and C57BU6 female mice were injected subcutaneously with Nogo-peptide emulsions (concentrations ranging from 100 μg to 500 μg per injection) in CFA, consisting of IFA (Difco) and 1 mg/ml heat-inactivated Mycobacterium tuberculosis (strain H37RA; Difco laboratories, Detroit Mich.). […] Animals were clinically scored daily according to the following scale: 0-normal; 1-tail paralysis; 2-hind limb paraparesis; 3-complete hind limb paralysis; 4-forelimb paresis or paralysis; 5-death.
Proliferation assays. […] Wells were pulsed with 1 μCi [^3H]TdR for the final 16 hours of culture, and incorporated radioactivity was measured using a betaplate scintillation counter.

Bi MOG35-55 BIOTIN = test: myelin antigen microarray, serum antibody binding to spotted feature 'Bi MOG35-55 BIOTIN'

## Anti-mouse IgG/M (antibody)
Normal Mouse Serum
  microarray signal (quantity and unit not named on the sheet): 50000

## Nogo23-44 (LESEVAISEELVQKYSNSALGH; SEQ ID NO:5) [pNogo23-44, peptide 23-44 of the extracellular 66-amino acid loop Nogo-66]
[1]
  epitope spreading of the B cell response to other myelin antigens: to MOG and MBP peptides (especially in C57BU6 animals)
Whole lymph node cells; C57BU6 animals, listed as Ng23-44
  T cell proliferative response against the immunizing antigen: T cell reaction

## Nogo45-66 (VNSTIKELRRLFLVDDLVDSLK; SEQ ID NO:2) [pNogo45-66, peptide 45-66 of the extracellular 66-amino acid loop Nogo-66]
[2]
  cell surface expression of CD25, CD18, CD40L, CD62, CD69, CD28 and CTLA4e in T cells or CD80, CD86, CD40 in dendritic cells: could not find any difference
EAE in SJL/J mice
  in vitro proliferation at the end of the experiment: much stronger than against the EAE inducing antigen
[1]; mouse, in vivo
  strength as B cell antigen compared with the other peptides: much stronger B cell antigen than any of the other two synthesized peptides
Whole lymph node cells; SJL/J animals
  T cell proliferative response against the immunizing antigen: strong and specific proliferative response
Whole lymph node cells; SJL/J animals, listed as Ng45-66
  T cell proliferative response against the immunizing antigen: T cell reaction

## Nogo 1-22 (RIYKGVIQAIQKSDEGHPFRAY; SEQ ID NO:4) [pNogo1-22, peptide 1-22 of the extracellular 66-amino acid loop Nogo-66]
[2]
  cell surface expression of CD25, CD18, CD40L, CD62, CD69, CD28 and CTLA4e in T cells or CD80, CD86, CD40 in dendritic cells: could not find any difference
[1]
  epitope spreading of the B cell response to other myelin antigens: mainly to MBP peptides
Whole lymph node cells; C57BU6 animals, listed as Ng1-22
  T cell proliferative response against the immunizing antigen: T cell reaction
Whole lymph node cells; SJL/J animals
  T cell proliferative response against the immunizing antigen: strong and specific proliferative response
Whole lymph node cells; SJL/J animals, listed as Ng1-22
  T cell proliferative response against the immunizing antigen: T cell reaction

## Normal Mouse Serum
Bi MOG35-55 BIOTIN
  microarray signal (quantity and unit not named on the sheet): 5
